System: MV-4-11 cells
Assay: Gene expression microarray analysis (Affymetrix PrimeView) and GSEA
Format: cell-based, human
Design: RFU PODN (11730768_x_at) / Fold change /veh PODN (11730768_x_at) / RFU LINC00158 (11744669_a_at) / Fold change /veh LINC00158 (11744669_a_at) / RFU DUSP10 (11751237_a_at) / Fold change /veh DUSP10 (11751237_a_at) / RFU ID3 (11757404_x_at) / Fold change /veh ID3 (11757404_x_at) / RFU PLEKHG5 (11737974_s_at) / Fold change /veh PLEKHG5 (11737974_s_at) / RFU LRRC4B (11730491_at) / Fold change /veh LRRC4B (11730491_at) / RFU GIMAP4 (11747438_a_at) / Fold change /veh GIMAP4 (11747438_a_at) / RFU KRT8 (11758183_x_at) / Fold change /veh KRT8 (11758183_x_at) / RFU CNN1 (11734310_a_at) / Fold change /veh CNN1 (11734310_a_at) / RFU VPS37D (11726825_at) / Fold change /veh VPS37D (11726825_at) / RFU C10orf10 (11716522_x_at) / Fold change /veh C10orf10 (11716522_x_at) / RFU KIR2DL2 /// KIR2DL4 /// KIR2DL5A /// KIR2DL5B /// KIR2DS1 /// KIR2DS2 /// KIR2DS3 /// KIR2DS4 /// KIR3DL3 /// KIR3DL3 /// KIR3DS1 (11738374_at) / Fold change /veh KIR2DL2 /// KIR2DL4 /// KIR2DL5A /// KIR2DL5B /// KIR2DS1 /// KIR2DS2 /// KIR2DS3 /// KIR2DS4 /// KIR3DL3 /// KIR3DL3 /// KIR3DS1 (11738374_at) / RFU C1QL1 (11718748_at) / Fold change /veh C1QL1 (11718748_at) / RFU TMPRSS4 (11747572_a_at) / Fold change /veh TMPRSS4 (11747572_a_at) / RFU HAMP (11756126_x_at) / Fold change /veh HAMP (11756126_x_at) / RFU RNFT2 (11725882_a_at) / Fold change /veh RNFT2 (11725882_a_at) / RFU NR4A2 (11747474_a_at) / Fold change /veh NR4A2 (11747474_a_at) / RFU ABCC12 (11746883_a_at) / Fold change /veh ABCC12 (11746883_a_at) / RFU TMEM136 (11760407_x_at) / Fold change /veh TMEM136 (11760407_x_at) / RFU CLDN22 /// WWC2 (11732394_at) / Fold change /veh CLDN22 /// WWC2 (11732394_at) / RFU HLA-DPB1 (11760878_x_at) / Fold change /veh HLA-DPB1 (11760878_x_at) / RFU SPINT1 (11716480_a_at) / Fold change /veh SPINT1 (11716480_a_at) / RFU GAP43 (11754022_s_at) / Fold change /veh GAP43 (11754022_s_at) / RFU A4GNT (11735810_at) / Fold change /veh A4GNT (11735810_at) / RFU PRB3 (11715151_x_at) / Fold change /veh PRB3 (11715151_x_at) / RFU TUBB4B (11761932_at) / Fold change /veh TUBB4B (11761932_at) / RFU CAPN14 (11732068_a_at) / Fold change /veh CAPN14 (11732068_a_at) / RFU TMCC2 (11721928_a_at) / Fold change /veh TMCC2 (11721928_a_at) / RFU IRGQ (11745062_a_at) / Fold change /veh IRGQ (11745062_a_at) / RFU FAM174B (11720279_a_at) / Fold change /veh FAM174B (11720279_a_at) / RFU TMPRSS4 (11748680_a_at) / Fold change /veh TMPRSS4 (11748680_a_at) / RFU FAM212B (11763350_a_at) / Fold change /veh FAM212B (11763350_a_at) / RFU PLEKHG5 (11743358_a_at) / Fold change /veh PLEKHG5 (11743358_a_at) / RFU ZSCAN30 (11745921_a_at) / Fold change /veh ZSCAN30 (11745921_a_at) / RFU CMKLR1 (11741424_a_at) / Fold change /veh CMKLR1 (11741424_a_at) / RFU LOC101060620 /// MAPK8IP1 (11723275_at) / Fold change /veh LOC101060620 /// MAPK8IP1 (11723275_at) / RFU SPTSSB (11747773_x_at) / Fold change /veh SPTSSB (11747773_x_at) / RFU PRSS12 (11739890_at) / Fold change /veh PRSS12 (11739890_at) / RFU BIN1 (11741810_x_at) / Fold change /veh BIN1 (11741810_x_at) / RFU WNT11 (11732464_a_at) / Fold change /veh WNT11 (11732464_a_at) / RFU C10orf10 (11716521_a_at) / Fold change /veh C10orf10 (11716521_a_at) / RFU C5orf56 (11738089_at) / Fold change /veh C5orf56 (11738089_at) / RFU CYB561 (11721691_x_at) / Fold change /veh CYB561 (11721691_x_at) / RFU ANKRD19P (11752326_a_at) / Fold change /veh ANKRD19P (11752326_a_at) / RFU OR2T12 /// OR2T33 /// OR2T8 (11738714_s_at) / Fold change /veh OR2T12 /// OR2T33 /// OR2T8 (11738714_s_at) / RFU VCAN (11748164_a_at) / Fold change /veh VCAN (11748164_a_at) / RFU JSRP1 (11732532_at) / Fold change /veh JSRP1 (11732532_at) / RFU KRTAP10-11 (11738290_x_at) / Fold change /veh KRTAP10-11 (11738290_x_at) / RFU MYO3A (11730013_a_at) / Fold change /veh MYO3A (11730013_a_at) / RFU EBF3 (11725865_a_at) / Fold change /veh EBF3 (11725865_a_at) / RFU CAMK2N1 (11719241_x_at) / Fold change /veh CAMK2N1 (11719241_x_at) / RFU C5orf56 (11738088_a_at) / Fold change /veh C5orf56 (11738088_a_at) / RFU OLFML3 (11715873_a_at) / Fold change /veh OLFML3 (11715873_a_at) / RFU LOC100653217 /// NTM (11731650_a_at) / Fold change /veh LOC100653217 /// NTM (11731650_a_at) / RFU MAPK11 (11762145_a_at) / Fold change /veh MAPK11 (11762145_a_at) / RFU FIZ1 (11724087_x_at) / Fold change /veh FIZ1 (11724087_x_at) / RFU OASL (11726364_x_at) / Fold change /veh OASL (11726364_x_at) / RFU SOX15 (11748057_x_at) / Fold change /veh SOX15 (11748057_x_at) / RFU CD79A (11719716_a_at) / Fold change /veh CD79A (11719716_a_at) / RFU HIST1H1D (11736915_at) / Fold change /veh HIST1H1D (11736915_at) / RFU CASKIN2 (11723855_a_at) / Fold change /veh CASKIN2 (11723855_a_at) / RFU LOC730098 (11760151_x_at) / Fold change /veh LOC730098 (11760151_x_at) / RFU OR4N2 (11742367_at) / Fold change /veh OR4N2 (11742367_at) / RFU PRRT2 (11749266_a_at) / Fold change /veh PRRT2 (11749266_a_at) / RFU SNX32 (11753110_a_at) / Fold change /veh SNX32 (11753110_a_at) / RFU CDHR5 (11726645_a_at) / Fold change /veh CDHR5 (11726645_a_at) / RFU RCAN1 (11760418_a_at) / Fold change /veh RCAN1 (11760418_a_at) / RFU FAM167A (11723789_a_at) / Fold change /veh FAM167A (11723789_a_at) / RFU FAM26E (11764081_at) / Fold change /veh FAM26E (11764081_at) / RFU ISYNA1 (11749810_s_at) / Fold change /veh ISYNA1 (11749810_s_at) / RFU ACY1 (11761880_at) / Fold change /veh ACY1 (11761880_at) / RFU 11764098_at / Fold change /veh 11764098_at / RFU SAMD14 (11745864_x_at) / Fold change /veh SAMD14 (11745864_x_at) / RFU NPB (11741838_a_at) / Fold change /veh NPB (11741838_a_at) / RFU TMPRSS6 (11731388_a_at) / Fold change /veh TMPRSS6 (11731388_a_at) / RFU KRTAP10-2 (11738614_at) / Fold change /veh KRTAP10-2 (11738614_at) / RFU ARHGAP8 /// PRR5-ARHGAP8 (11727945_x_at) / Fold change /veh ARHGAP8 /// PRR5-ARHGAP8 (11727945_x_at) / RFU KRTAP5-7 /// NADSYN1 (11734609_at) / Fold change /veh KRTAP5-7 /// NADSYN1 (11734609_at) / RFU RASL12 (11751679_a_at) / Fold change /veh RASL12 (11751679_a_at) / RFU CDKN2B (11736163_a_at) / Fold change /veh CDKN2B (11736163_a_at) / RFU PRF1 (11729649_at) / Fold change /veh PRF1 (11729649_at) / RFU, ZNF638 /// ZNF638-IT1 / Fold change vs veh, ZNF638 /// ZNF638-IT1 / RFU, PANK3 / Fold change vs veh, PANK3 / RFU, SH3YL1 / Fold change vs veh, SH3YL1 / RFU, ZEB2 / Fold change vs veh, ZEB2 / RFU, NRIP1 / Fold change vs veh, NRIP1 / RFU, PTTG1IP / Fold change vs veh, PTTG1IP / RFU, CAPN2 / Fold change vs veh, CAPN2 / RFU, MED14 / Fold change vs veh, MED14 / RFU, SNORA58 / Fold change vs veh, SNORA58 / RFU, C1orf63 / Fold change vs veh, C1orf63 / RFU, LRRFIP1 / Fold change vs veh, LRRFIP1 / RFU, NDUFAF7 / Fold change vs veh, NDUFAF7 / RFU, SLC12A2 / Fold change vs veh, SLC12A2 / RFU, IBTK / Fold change vs veh, IBTK / RFU, ESF1 / Fold change vs veh, ESF1 / Fold change vs veh, TMEM50B / RFU, TAOK1 / Fold change vs veh, TAOK1 / RFU, ACBD3 / Fold change vs veh, ACBD3 / RFU, TMA16 / Fold change vs veh, TMA16 / RFU, RWDD3 / Fold change vs veh, RWDD3 / RFU, BCAT1 / Fold change vs veh, BCAT1 / RFU, EDEM3 / Fold change vs veh, EDEM3 / RFU, TMEM33 / Fold change vs veh, TMEM33 / RFU, WDR75 / Fold change vs veh, WDR75 / RFU, AHCTF1 / Fold change vs veh, AHCTF1 / RFU, TFRC / Fold change vs veh, TFRC / RFU, ZDHHC17 / Fold change vs veh, ZDHHC17 / RFU, NOM1 / Fold change vs veh, NOM1 / RFU, ARL8B / Fold change vs veh, ARL8B / RFU, ZBTB11 / Fold change vs veh, ZBTB11 / RFU, TAMM41 / Fold change vs veh, TAMM41 / RFU, KIAA1704 /// LOC100996395 / Fold change vs veh, KIAA1704 /// LOC100996395 / RFU, ING1 / Fold change vs veh, ING1 / RFU, TRMT61B / Fold change vs veh, TRMT61B / RFU, FUBP3 / Fold change vs veh, FUBP3 / RFU, TP53 / Fold change vs veh, TP53 / RFU, TNKS2 / Fold change vs veh, TNKS2 / RFU, ZFP14 / Fold change vs veh, ZFP14 / RFU, ACTR2 / Fold change vs veh, ACTR2 / RFU, PPP3R1 / Fold change vs veh, PPP3R1 / RFU, PIK3R1 / Fold change vs veh, PIK3R1 / RFU, HNRNPA1 / Fold change vs veh, HNRNPA1 / RFU, RNF170 / Fold change vs veh, RNF170 / RFU, ZNF28 / Fold change vs veh, ZNF28 / RFU, RNGTT / Fold change vs veh, RNGTT / RFU, OGT / Fold change vs veh, OGT / RFU, BRD1 / Fold change vs veh, BRD1 / RFU, MARS / Fold change vs veh, MARS / RFU, ZNF655 / Fold change vs veh, ZNF655 / RFU, FAHD1 / Fold change vs veh, FAHD1 / RFU, BDP1 / Fold change vs veh, BDP1 / RFU, LRRCC1 / Fold change vs veh, LRRCC1 / RFU, ARID1A / Fold change vs veh, ARID1A / RFU, ZNF146 / Fold change vs veh, ZNF146 / RFU, ZNF330 / Fold change vs veh, ZNF330 / RFU, GPN3 / Fold change vs veh, GPN3 / RFU, C9orf123 / Fold change vs veh, C9orf123 / RFU, N4BP2L2 / Fold change vs veh, N4BP2L2 / RFU, ARFIP1 / Fold change vs veh, ARFIP1 / RFU, FAM179B / Fold change vs veh, FAM179B / RFU, BCL10 / Fold change vs veh, BCL10 / RFU, UHRF1BP1L / Fold change vs veh, UHRF1BP1L / RFU, BET1 / Fold change vs veh, BET1 / RFU, CNOT2 / Fold change vs veh, CNOT2 / RFU, ZNF268 / Fold change vs veh, ZNF268 / Fold change vs veh, ZNF507 / RFU, DGCR2 / Fold change vs veh, DGCR2 / RFU, WDSUB1 / Fold change vs veh, WDSUB1 / Fold change vs veh, HSP90B1 /// MIR3652 / RFU, ADSS / Fold change vs veh, ADSS / RFU, GK / Fold change vs veh, GK / RFU, ZNF148 / Fold change vs veh, ZNF148 / RFU, TAF9 / Fold change vs veh, TAF9 / RFU, SLC1A5 / Fold change vs veh, SLC1A5 / RFU, SLMO2 / Fold change vs veh, SLMO2 / RFU, ABCC4 / Fold change vs veh, ABCC4 / RFU, LOC101060439 /// RAP1B / Fold change vs veh, LOC101060439 /// RAP1B / RFU, RFX7 / Fold change vs veh, RFX7 / RFU, GTPBP10 / Fold change vs veh, GTPBP10 / RFU, CNEP1R1 / Fold change vs veh, CNEP1R1 / RFU, BIVM-ERCC5 /// ERCC5 / Fold change vs veh, BIVM-ERCC5 /// ERCC5 / RFU, ILF3 / Fold change vs veh, ILF3 / RFU 11762660_at / Fold change /veh 11762660_at / RFU VCAN (11757783_s_at) / Fold change /veh VCAN (11757783_s_at) / RFU DDX43 (11728927_at) / Fold change /veh DDX43 (11728927_at) / RFU KRT8 (11758188_x_at) / Fold change /veh KRT8 (11758188_x_at) / RFU NKD1 (11759106_at) / Fold change /veh NKD1 (11759106_at) / RFU SRD5A1 (11742802_a_at) / Fold change /veh SRD5A1 (11742802_a_at) / RFU TPSAB1 /// TPSB2 (11721975_s_at) / Fold change /veh TPSAB1 /// TPSB2 (11721975_s_at) / RFU GSTM3 (11746129_a_at) / Fold change /veh GSTM3 (11746129_a_at) / RFU IL23R (11737362_x_at) / Fold change /veh IL23R (11737362_x_at) / RFU TMEM51 (11727254_a_at) / Fold change /veh TMEM51 (11727254_a_at) / RFU PIWIL2 (11732686_x_at) / Fold change /veh PIWIL2 (11732686_x_at) / RFU ORM1 (11744905_x_at) / Fold change /veh ORM1 (11744905_x_at) / RFU CCDC152 (11743942_at) / Fold change /veh CCDC152 (11743942_at) / RFU ECM1 (11717891_a_at) / Fold change /veh ECM1 (11717891_a_at) / RFU IL23R (11748794_a_at) / Fold change /veh IL23R (11748794_a_at) / RFU TNFAIP8L3 (11732012_x_at) / Fold change /veh TNFAIP8L3 (11732012_x_at) / RFU MBOAT4 (11741988_at) / Fold change /veh MBOAT4 (11741988_at) / RFU 11764193_at / Fold change /veh 11764193_at / RFU TMEM53 (11763286_at) / Fold change /veh TMEM53 (11763286_at) / RFU MAGEB2 (11727129_at) / Fold change /veh MAGEB2 (11727129_at) / RFU TMEM200A (11744735_a_at) / Fold change /veh TMEM200A (11744735_a_at) / RFU CCDC152 (11751479_a_at) / Fold change /veh CCDC152 (11751479_a_at) / RFU FAM211A (11726209_a_at) / Fold change /veh FAM211A (11726209_a_at) / RFU RGS16 (11746705_a_at) / Fold change /veh RGS16 (11746705_a_at) / RFU VCAN (11755009_s_at) / Fold change /veh VCAN (11755009_s_at) / RFU RHOB (11743442_s_at) / Fold change /veh RHOB (11743442_s_at) / RFU RGS16 (11720943_a_at) / Fold change /veh RGS16 (11720943_a_at) / RFU RGS16 (11720944_at) / Fold change /veh RGS16 (11720944_at) / RFU, VPS4B / Fold change vs veh, VPS4B / RFU, CREB1 / Fold change vs veh, CREB1 / RFU, DNAJC13 / Fold change vs veh, DNAJC13 / RFU, GNAQ / Fold change vs veh, GNAQ / RFU, CDK5R1 / Fold change vs veh, CDK5R1 / RFU, ZRANB3 / Fold change vs veh, ZRANB3 / RFU, CUL4A / Fold change vs veh, CUL4A / RFU, CCNY / Fold change vs veh, CCNY / RFU, UFL1 / Fold change vs veh, UFL1 / RFU, COG3 / Fold change vs veh, COG3 / RFU, DIAPH2 / Fold change vs veh, DIAPH2 / RFU, SKA2 / Fold change vs veh, SKA2 / RFU, AFF3 / Fold change vs veh, AFF3 / RFU, LMF1 / Fold change vs veh, LMF1 / RFU, IPO11 / Fold change vs veh, IPO11 / RFU, DFFB / Fold change vs veh, DFFB / RFU, FOXP1 / Fold change vs veh, FOXP1 / RFU, CARD8 / Fold change vs veh, CARD8 / RFU, STRN3 / Fold change vs veh, STRN3 / RFU, ADK / Fold change vs veh, ADK / RFU, RASSF2 / Fold change vs veh, RASSF2 / RFU, WIPF1 / Fold change vs veh, WIPF1 / RFU, LARP1B / Fold change vs veh, LARP1B / RFU, RASA1 / Fold change vs veh, RASA1 / RFU, RB1 / Fold change vs veh, RB1 / RFU, PPFIA1 / Fold change vs veh, PPFIA1 / RFU, MAT2A / Fold change vs veh, MAT2A / RFU, CCT5 / Fold change vs veh, CCT5 / RFU, WDR92 / Fold change vs veh, WDR92 / RFU, CUX1 / Fold change vs veh, CUX1 / RFU, TTC7A / Fold change vs veh, TTC7A / RFU, TMEM135 / Fold change vs veh, TMEM135 / RFU, DEPTOR / Fold change vs veh, DEPTOR / RFU, CPM / Fold change vs veh, CPM / RFU, DNAJB6 / Fold change vs veh, DNAJB6 / RFU, CACNA2D3 / Fold change vs veh, CACNA2D3 / RFU, DTX4 / Fold change vs veh, DTX4 / RFU, TFCP2 / Fold change vs veh, TFCP2 / RFU, GMCL1 /// GMCL1P1 / Fold change vs veh, GMCL1 /// GMCL1P1 / RFU, AEBP2 / Fold change vs veh, AEBP2 / RFU, SNHG1 /// SNORD22 /// SNORD25 /// SNORD26 /// SNORD27 /// SNORD28 /// SNORD29 /// SNORD31 / Fold change vs veh, SNHG1 /// SNORD22 /// SNORD25 /// SNORD26 /// SNORD27 /// SNORD28 /// SNORD29 /// SNORD31 / Fold change (Aza/veh), C12orf56 (ProbeSet 11735607_a_at) / Fold change (ACY-1035/veh), C12orf56 (ProbeSet 11735607_a_at) / Fold change (Aza/veh), FGFR1OP (ProbeSet 11751329_s_at) / Fold change (ACY-1035/veh), FGFR1OP (ProbeSet 11751329_s_at) / Fold change (Aza/veh), VPS36 (ProbeSet 11739960_a_at) / Fold change (ACY-1035/veh), VPS36 (ProbeSet 11739960_a_at) / RFU SYPL1 (11715823_x_at) / Fold change /veh SYPL1 (11715823_x_at) / RFU IGFBP7 (11715501_s_at) / Fold change /veh IGFBP7 (11715501_s_at) / RFU REEP3 (11722064_at) / Fold change /veh REEP3 (11722064_at) / RFU IGLL1 (11728026_x_at) / Fold change /veh IGLL1 (11728026_x_at): dose or concentration left out as unconfirmed
Settings: MV-4-11 cells, 48 hours

`Nc1ccc(-c2cccs2)cc1NC(=O)c1ccc2c(c1)cc(C1CC1)n2CCN1CCOCC1` [ACY-1035] was tested, and the “RFU RGS16 (11746705_a_at)” value was 52.79 RFU.
